Laboratory results published in patent publication US7943646B2, “Benzamidine derivative, process for the preparation thereof and pharmaceutical composition comprising same” (Dong Wha Pharmaceutical Co., Ltd., priority 2006, dated 2011).
Like-named read-outs stand apart in the source and are kept apart here.

Key:
[1] = system: osteoclast differentiation; experiment: Inhibitory effect on osteoclast differentiation, co-culture of bone marrow cells and osteoblast, TRAP staining; format: cell-based, mouse; details: for inhibition at 1 µM: Mus musculus, Osteoclast, 168 h, read-out: inhibitory effect on osteoclast differentiation(%)
Description: The effect of the benzamidine derivative of the present invention on osteoclast formation and differentiation process was evaluated via co-culture with an osteoblast.
Tibia was aseptically ectomized from male 6 to 8-week-old ddY mice to harvest bone marrow cells by using a syringe (21G, Korea Green Cross). The bone marrow cells were suspended in 5 mL of an α-MEM medium (Gibco BRL Co., added with sodium bicarbonate (2.0 g/L), streptomycin (100 mg/L) and penicillin ([…]), filtered and then sterilized). The harvested cells were centrifuged at 600×g for 5 mins to collect the whole quantity. To remove the red blood cells in the bone marrow cells, 3 mL of Tris HCl (0.83% NH4Cl, pH 7.5) was added and well mixed. After centrifuging above cells, the numbers of the eukaryotic cells in the harvested bone marrow cells were counted and then immediately used for a co-culture system.
The progenitor bone and the parietal bone were aseptically ectomized from 1 to 2-day-old neonate ICR mice, washed with a phosphate butter solution (PBS) and treated with a mixed enzyme solution (of 0.2% collagenase and 0.1% dispase) sequentially (10, 10, 10, 20, 20 and 20 min), and then 3 to 6 groups of the cells which comprise lot of cells having the characteristics of the osteoblast were intensively collected and washed with a medium (a serum-free α-MEM). The washed cells were cultured in the α-MEM medium containing 10% FBS for 2 to 3 days. After subculturing, the collected cells were used for this experiment, and diluted to a concentration of 1×10^6 cells/mL for storage at −70[…].
The benzamidine derivative of the present invention was dissolved in a sterile distilled water or ethanol to dilute to a desired concentration. The final volume of the sample added to the cell culture medium was set at a ratio of 1:1000.
The bone marrow cells prepared in the above 1-1 and the osteoblast were co-cultured for osteoclast differentiation. Both the bone marrow cells (25,000 cells/cm^2) and the osteoblast (10,000 cells/cm^2) were plated in a 96-well plate using α-MEM medium containing FBS, and then cultured with the samples to be tested for 7 days. Differentiation factors, such as dexamethasone (10^−7 M) and vitamin D3 (10^−8 M), were also co-added to the medium from the first day of cultivation. The medium was changed with a fresh media containing a mixture of the samples and the differentiation factors every 2 to 3 days.
TRAP was used as a marker to measure the matured osteoclast in consideration of its characteristics showing a positive reaction to a TRAP staining solution. The TRAP staining solution was prepared in such the manner that 5 mg of naphtol AS-MS phosphate (sigma N-4875) as a substrate, and 25 mg of a coloring agent (Fast Red Violet LB salt) were dissolved in N,N-dimethylformamide (about 0.5 mL). 50 ml of a 0.1 N NaHCO3 buffer solution containing 50 mM tartaric acid (pH 5.0) was added thereto, and the mixture was stored at a refrigerator prior to use as a staining solution.
After culturing the cells for 7 days, the medium was removed from the wells, the cells were once washed with PBS, and then fixed with PBS containing 10% formalin for 2 to 5 min. The cells were fixed again in a mixed solution of ethanol and acetone (1/1) for about 1 min, and dried off. The cells were further treated by the TRAP staining solution for 15 mins and washed with water and dried off. The osteoclasts with 3 or more nuclei showing a TRAP-positive reaction were counted under a microscopic examination. Each of tests was confirmed over at least three times. The inhibitory effect on osteoclast differentiation of each experimental group, relative to negative controls, was expressed as a percentage (%).

[2] = system: HOS; experiment: Cytotoxicity test (MTT), HOS; format: cell-based; details: 10^−6M, 72 hrs, in comparison with the control group
Description: (§1) The cytotoxic effect of the benzamidine derivative of the present invention was evaluated by carrying out the experiment described below.
(§2) The test substance was diluted in an appropriate solvent at a 10^−2 M concentration. This substance was diluted in an appropriate culture medium for the cells used in the cytotoxicity test to a concentration of […], and loaded into a 96-well plate in 100 μl per well. The cell lines to be used in the cytotoxicity test were plated on a 96-well plate in a dose of 1.0×10^4 cells/1OO μl per well and cultured for 72 hrs. 25 μl of MTT [3-(4,5-dimethyl-2-thiazolyl)-2,5-diphenyl-2H-tetrazolium bromide] dissolved in PBS (2 mg/mL) were added before 4 hrs of the end of culture. After completion of the reaction, the plates were centrifuged, the medium was discarded and 100 μl of DMSO was added to dissolve formazan. Finally, the absorbance of the developed plates was measured at 540 nm. The survival rates of the cells were expressed as % concentration values in comparison with the control group.

[3] = system: MC3T3; experiment: Cytotoxicity test (MTT), MC3T3; format: cell-based; details: 10^−6M, 72 hrs, in comparison with the control group
Description: as §1, §2

[4] = system: calvaria; experiment: Cytotoxicity test (MTT), calvaria; format: cell-based; details: 10^−6M, 72 hrs, in comparison with the control group
Description: as §1, §2

[5] = 1 μm, 7 days co-culture, TRAP-positive osteoclasts with 3 or more nuclei, relative to negative controls

Molecule	survival rates of the cells [2]	survival rates of the cells [3]	survival rates of the cells [4]	inhibition at 1 µM [1, 5]	further results
CC(C)c1nc(-c2ccc(OCCCCCOc3ccc(C(=N)NO)cc3)cc2)c(CCN2CCSCC2)s1 [Example 32, N-hydroxy-4-(5-{4-[2-isopropyl-5-(2-thiomorpholin-4-yl-ethyl)-thiazol-4-yl]-phenoxy}-pentyloxy)-benzamidine]					inhibition at 1 µM [1]: 97%
CN1CCN(CCc2sc(C3CCCCC3)nc2-c2ccc(OCCCCCOc3ccc(C(=N)NO)cc3)cc2)CC1 [Example 34, N-hydroxy-4-[5-(4-{2-cyclohexyl-5-[2-(4-methyl-piperazin-1-yl)-ethyl]-thiazol-4-yl}-phenoxy)-pentyloxy]-benzamidine]					inhibition at 1 µM [1]: 100%
N=C(NO)c1ccc(OCCCCCOc2ccc(-c3nc(C4CCCCC4)sc3CCNCCN3CCOCC3)cc2)cc1 [Example 35, N-hydroxy-4-[5-(4-{2-cyclohexyl-5-[2-(2-morpholin-4-yl-ethylamino)-ethyl]-thiazol-4-yl}-phenoxy)-pentyloxy]-benzamidine]	115.7%	98.6%	81.6%		inhibition at 1 µM [1]: 100%
Cc1nc(-c2ccc(OCCCCOc3ccc(C(=N)NO)cc3)cc2)c(CCN2CCOCC2)s1 [Example 44, N-hydroxy-4-(4-{4-[2-methyl-5-(2-morpholin-4-yl-ethyl)-thiazol-4-yl]-phenoxy}-butoxy)-benzamidine]	105.6%	101.3%	90.6%		
N=C(N)c1ccc(OCCCCCOc2ccc(-c3nc(C4CCCCC4)sc3CCN3CCOCC3)cc2)cc1 [Example 45, 4-(5-{4-[2-cyclohexyl-5-(2-morpholin-4-yl-ethyl)-thiazol-4-yl]-phenoxy}-pentyloxy)-benzamidine]	106.9%	108.2%	90.5%		
CNc1nc(-c2ccc(OCCCCCOc3ccc(C(=N)NO)cc3)cc2)c(CCN2CCN(C)CC2)s1 [Example 48, N-hydroxy-4-[5-(4-{2-methylamino-5-[2-(4-methyl-piperazin-1-yl)-ethyl]-thiazol-4-yl}-phenoxy)-pentyloxy]-benzamidine]				60.6%	
CNc1nc(-c2ccc(OCCCCCOc3ccc(C(=N)NO)cc3)cc2)c(CCN2CCSCC2)s1 [Example 49, N-hydroxy-4-(5-{4-[2-methylamino-5-(2-thiomorpholin-4-yl-ethyl)-thiazol-4-yl]-phenoxy}-pentyloxy)-benzamidine]				84%	
CNc1nc(-c2ccc(OCCCCCOc3ccc(C(=N)N)cc3)cc2)c(CCN2CCOCC2)s1 [Example 52, 4-(5-{4-[2-methylamino-5-(2-morpholin-4-yl-ethyl)-thiazol-4-yl]-phenoxy}-pentyloxy)-benzamidine]	98.8%	115.6%	100.1%		
CN(C)c1nc(-c2ccc(OCCCCCOc3ccc(C(=N)NO)cc3)cc2)c(CCN2CCSCC2)s1 [Example 54, N-hydroxy-4-(5-{4-[2-dimethylamino-5-(2-thiomorpholin-4-yl-ethyl)-thiazol-4-yl]-phenoxy}-pentyloxy)-benzamidine]				88%	
CC(C)C(=O)N(C)c1nc(-c2ccc(OCCCCCOc3ccc(C(=N)NO)cc3)cc2)c(CCN2CCOCC2)s1 [Example 55, N-hydroxy-4-(5-{4-[2-(isobutyryl-methyl-amino)-5-(2-morpholin-4-yl-ethyl)-thiazol-4-yl]-phenoxy}-pentyloxy)-benzamidine]				69%	
N=C(NO)c1ccc(OCCCCCOc2ccc(-c3nc(N4CCOCC4)sc3CCN3CCSCC3)cc2)cc1 [Example 60, N-hydroxy-4-(5-{4-[2-morpholin-4-yl-5-(2-thiomorpholin-4-yl-ethyl)-thiazol-4-yl]-phenoxy}-pentyloxy)-benzamidine]				88%	
CN1CCN(CCc2sc(N3CCOCC3)nc2-c2ccc(OCCCCCOc3ccc(C(=N)NO)cc3)cc2)CC1 [Example 61, N-hydroxy-4-[5-(4-{5-[2-(4-methyl-piperazin-1-yl)-ethyl]-2-morpholin-4-yl-thiazol-4-yl}-phenoxy)-pentyloxy]-benzamidine]				76%	
N=C(N)c1ccc(OCCCCCOc2ccc(-c3nc(N4CCOCC4)sc3CCN3CCOCC3)cc2)cc1 [Example 64, 4-(5-{4-[2-morpholin-4-yl-5-(2-morpholin-4-yl-ethyl)-thiazol-4-yl]-phenoxy}-pentyloxy)-benzamidine]	107.8%	119.8%	99.4%		
Cc1nc(-c2ccc(OCCCCCOc3ccc(C(=N)NO)cc3)cc2)c(CCN(CC(C)C)C(=O)c2cccnc2)s1 [Example 66, N-hydroxy-4-{5-[4-(5-{2-[isobutyl-(pyridine-3-carbonyl)-amino]-ethyl}-2-methyl-thiazol-4-yl)-phenoxy]-pentyloxy}-benzamidine]	105.9%	111.1%	99.0%		
CC(C)c1nc(-c2ccc(OCCCCCOc3ccc(C(=N)NO)cc3)cc2)c(CCN(C(=O)c2ccncc2)C2CC2)s1 [Example 67, N-hydroxy-4-{5-[4-(5-{2-[cyclopropyl-(pyridine-4-carbonyl)-amino]-ethyl}-2-isopropyl-thiazol-4-yl)-phenoxy]-pentyloxy}-benzamidine]	97.5%	80.7%	95.3%		
N=C(NO)c1ccc(OCCCCCOc2ccc(-c3nc(C4CCCCC4)sc3CCN(C(=O)c3cccnc3)C3CC3)cc2)cc1 [Example 68, N-hydroxy-4-{5-[4-(2-cyclohexyl-5-{2-[cyclopropyl-(pyridine-3-carbonyl)-amino]ethyl}-thiazol-4-yl)-phenoxy]-pentyloxy}-benzamidine]	82.9%	90.3%	91.4%		
CNC(=O)c1sc(C)nc1-c1ccc(OCCCCCOc2ccc(C(=N)NO)cc2)cc1 [Example 69]					inhibitory effect on osteoclast differentiation(%) [1, 5]: 90.3%
Cc1nc(-c2ccc(OCCCCCOc3ccc(C(=N)NO)cc3)cc2)c(C(=O)NC(C)C)s1 [Example 70, N-hydroxy-4-{5-[4-(5-isopropylcarbamoyl-2-methyl-thiazol-4-yl)-phenoxy]-pentyloxy}-benzamidine]				84.8%	
Cc1nc(-c2ccc(OCCCCCOc3ccc(C(=N)NO)cc3)cc2)c(C(=O)NCCCn2ccnc2)s1 [Example 71, N-hydroxy-4-{5-[4-(5-{3-imidazol-1-yl-propylcarbamoyl}-2-methyl-thiazol-4-yl)-phenoxy]-pentyloxy}-benzamidine]				90.4%	
N-hydroxy-(5-{4-[5-(2-isobutyrylamino-ethyl)-2-methyl-thiazol-4-yl]-phenoxy}-pentyloxy)-benzamidine [Example 65]					inhibitory effect on osteoclast differentiation(%) [1, 5]: 29%
